Data published in patent US10646600B2, “HER2 polypeptides useful for imaging and monitoring tumors and cancers” (GE HEALTHCARE LIMITED, priority 2013, dated 2020).
Read-outs that look alike come from different tables or passages of the source.

Tests used:
[1] = system: HER2 negative and p95HER2 transfected cell lines; assay: In vitro uptake assay, HER2 negative and p95HER2 transfected cell lines; format: cell-based, human; conditions: across all HER2 negative and p95HER2 transfected lines, 60 minutes
From the text: MCF7-vector (piRES), MCF7-p95HER2 and MCF7-HER2 cells were a kind gift of Jose Baselga's laboratory (17). MCF7 clones, MDA-MB-231 (ATCC, Manassas, Va.), MDA-MB-361 (Sigma-Aldrich), SKBR-3 (ATCC) and SKOV-3 (Sigma-Aldrich) cells were maintained in DMEM. AGS (Sigma-Aldrich), HGC-27 (Sigma-Aldrich), NCI-N87 (ATCC) and OE-33 (ATCC) cells were maintained in RPMI (Sigma-Aldrich). A431 cells (Sigma-Aldrich) were maintained in MEM Eagle medium (Sigma-Aldrich). Growth media were supplemented with 10% FCS (Lonza, Basel, Switzerland), glutamine and antibiotics (both Invitrogen, Paisley, United Kingdom). A431 cells were additionally supplemented with 1% non-essential amino acids. All cells were cultured at 37° C. in a humidified atmosphere containing 5% CO2.
For baseline uptake in HER2 positive or negative lineages, 3×10^5 cells were seeded in complete media in 12-well plates (Corning, Tewksbury Mass.) and allowed to recover overnight. Cells were washed twice with serum-free medium and pulsed with 370 KBq in 500 μL serum-free medium for one h. […]
Cells were washed with PBS, trypsinized, neutralized with complete medium and centrifuged. […] The radioactivity of 100 μL lysate was counted on a Packard Cobra II gamma counter (Perkin Elmer). Radioactivity was normalized to applied radioactivity and protein content, which was determined for each sample by BCA assay (Pierce, Rockford, Ill.). […]

MDA-MB-361 = assay: Biodistribution, MDA-MB-361 tumor; format: in vivo, mice; conditions: 60 min
From the text: Mice were sacrificed at different time points by exsanguination.

rhesus HER2 = assay: Surface Plasmon Resonance, rhesus HER2-ECD-Fc; format: binding
Procedure: (§1) To characterize the affinity of [^19F]GE-226[SEQ ID NO 1] to HER2 protein, Surface Plasmon Resonance studies were conducted. Human, rhesus and rat HER2-ECD-Fc (SINO Biological, Beijing, China, Cat. Nr: 10004-H02H, 90020-K02H, and 80079-R02H), as well as human HER2-ECD-Fc-6×His (R&D Systems, Minneapolis, Minn., Cat. Nr: 1129-ER) and p95HER2 ECD-Fc-6×His (Syngene, Cambridge, United Kingdom) were diluted with 50 mM sodium acetate pH 4.5 (Biacore (GE Healthcare, Buckinghamshire, UK) coupling buffer) to a final concentration of 10 μg/mL. Antigen coupling to Biacore sensor chip CMS (Cat. Nr: BR-1005-30) was done according to amine coupling protocol from the instrument manual (Syngene). HBS-EP buffer (10 mM HEPES pH 7.4, 150 mM NaCl, 3 mM EDTA and 0.005% surfactant P20; GE Healthcare, Little Chalfont, United Kingdom, Cat. Nr: BR-1006-69) was used as running buffer and as solvent for the substances. The affinity studies were performed using a Biacore T100 (GE Healthcare). [^19F]GE-226 was diluted in HBS-EP buffer to 50 nM, 25 nM, 12.5 nM, 6.25 nM, 3.125 nM, 1.56 nM, 0.78 nM, 0.39 nM, 0.195 nM, 0.097 nM, 0.049 nM and 0 nM. The flow cells of the first chip comprised of blank, human HER2-ECD-Fc-6×His, p95HER2-ECD-Fc-6×His batch I and p95HER2-ECD-Fc-6×His batch II. The flow cells on the second chip contained blank, human HER2-ECD-Fc, rhesus HER2-ECD-Fc and rat HER2 ECD-Fc. The immobilization of the proteins was validated with protein-A (Sigma-Aldrich, St. Louis, Mo., Cat. Nr: P6031) and anti-human IgG antibody (Perkin Elmer, Waltham, Mass., Cat. Nr: NEF803001EA). [^19F]GE-226[SEQ ID NO 1] was pumped in duplicate over cells in randomized order for 60 sec at 50 μL/min flow rate followed by 120 sec of HBS-EP to monitor dissociation. This was followed by regeneration of the chip with 50 mM sodium hydroxide for 30 sec at 30 μL/min flow rate followed by 60 sec run of HBS-EP to stabilize the surface. Kinetic calculations were performed using Langmuir 1:1 binding model and simultaneous calculation of association and dissociation phase.

human p95HER2 = assay: Surface Plasmon Resonance, p95HER2 ECD-Fc-6×His; format: binding
Procedure: as §1, with “The immobilization of the proteins was validated with protein-A (Sigma-Aldrich, St. Louis, Mo., Cat. Nr: P6031) and anti-human IgG antibody (Perkin Elmer, Waltham, Mass., Cat. Nr: NEF803001EA). [^19F]GE-226[SEQ ID NO 1] was pumped in duplicate over cells in randomized order for 60 sec at 50 μL/min flow rate followed by 120 sec of HBS-EP to monitor dissociation. This was followed by regeneration of the chip with 50 mM sodium hydroxide for 30 sec at 30 μL/min flow rate followed by 60 sec run of HBS-EP to stabilize the surface. Kinetic calculations were performed using Langmuir 1:1 binding model and simultaneous calculation of association and dissociation phase.” left out

rat HER2 = target: T1, rat HER2 (Rattus norvegicus, UniProt P06494); assay: Surface Plasmon Resonance, rat HER2-ECD-Fc; format: binding
T1 construct: Human, rhesus and rat HER2-ECD-Fc (SINO Biological, Beijing, China, Cat. Nr: 10004-H02H, 90020-K02H, and 80079-R02H); Fc (C); purchased SINO Biological 80079-R02H
T1 sequence (P06494 23-654 limits assumed): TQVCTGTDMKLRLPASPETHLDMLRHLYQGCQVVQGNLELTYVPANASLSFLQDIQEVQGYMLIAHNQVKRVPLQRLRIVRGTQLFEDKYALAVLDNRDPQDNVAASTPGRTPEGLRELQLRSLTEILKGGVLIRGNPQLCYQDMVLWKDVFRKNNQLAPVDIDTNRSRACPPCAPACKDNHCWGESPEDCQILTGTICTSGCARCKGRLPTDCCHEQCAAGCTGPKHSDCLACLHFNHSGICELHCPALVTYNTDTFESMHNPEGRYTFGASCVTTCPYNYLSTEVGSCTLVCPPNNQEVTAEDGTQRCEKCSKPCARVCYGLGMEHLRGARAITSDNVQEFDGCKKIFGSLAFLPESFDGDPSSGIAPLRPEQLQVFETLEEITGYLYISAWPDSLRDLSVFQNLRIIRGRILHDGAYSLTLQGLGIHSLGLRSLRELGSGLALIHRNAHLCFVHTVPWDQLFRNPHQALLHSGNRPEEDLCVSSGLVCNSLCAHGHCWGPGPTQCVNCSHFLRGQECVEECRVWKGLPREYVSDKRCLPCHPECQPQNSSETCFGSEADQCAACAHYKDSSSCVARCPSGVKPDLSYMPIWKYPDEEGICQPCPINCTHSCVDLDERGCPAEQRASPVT
Procedure: as §1

[2] = listed as 19F-Affibody analogue

| Substance | background uptake [1] | Tissue uptake, MDA-MB-361 (MDA-MB-361) [% ID/g tissue] | Off-rate koff (rhesus HER2; Rhesus HER2) [s⁻¹] | On-rate kon (rhesus HER2; Rhesus HER2, Langmuir 1:1 binding model) [M⁻¹ s⁻¹] | Kd (rhesus HER2; Rhesus HER2, read-out: Affinity KD) [nM] | binding to rhesus HER2 (words) (rhesus HER2; listed as GE-226) | binding to rhesus HER2 (words) (rhesus HER2; listed as [^19F]-GE-226) | Kd (rhesus HER2; rhesus HER2, text, read-out: KD) [nM] | interaction with human p95HER2 (words) (human p95HER2) | interaction with human p95HER2 (words) (human p95HER2; [2]) | interaction with rat HER2 (words) (rat HER2) | interaction with rat HER2 (words) (rat HER2; [2]) | interaction with rat HER2 (words) (rat HER2; listed as GE-226) |
| --- | --- | --- | --- | --- | --- | --- | --- | --- | --- | --- | --- | --- | --- |
| [^18F]GE-226: HER2-binding 18F-radiolabelled Affibody molecule ZHER2:2891 | 1.2±0.5 % applied radioactivity per mg protein | 17.00 ± 2.98 |  |  |  |  |  |  |  |  |  |  |  |
| [^19F]GE-226: cold unlabeled non-radioactive 19F analogue of the tracer, used for SPR and blocking |  |  | 0.000425 | 6.37e+06 | 0.0667 | binds with high affinity | high affinity binding | 0.067 | did not interact | did not interact | did not interact | did not interact | not |
